Assay results reported in PubChem BioAssay (NCI).
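Exposure lasted 48 hours, with cells grown in 96-well plates and compounds tested at five concentrations. Abbreviation: GI50, concentration required for 50% inhibition of growth. TGI marks complete inhibition of growth.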

Columns and labels:
Assay in all cases: DTP human tumour cell line panel, 48 h
786-0 renal = system: 786-0 renal
A498 renal = system: A498 renal
A549 NSCLC = system: A549 NSCLC
ACHN renal = system: ACHN renal
BT-549 breast = system: BT-549 breast
CAKI-1 renal = system: CAKI-1 renal
CCRF-CEM leukemia = system: CCRF-CEM leukemia
COLO 205 colon = system: COLO 205 colon
DU-145 prostate = system: DU-145 prostate
EKVX NSCLC = system: EKVX NSCLC
HCC-2998 colon = system: HCC-2998 colon
HCT-116 colon = system: HCT-116 colon
HCT-15 colon = system: HCT-15 colon
HOP-62 NSCLC = system: HOP-62 NSCLC
HOP-92 NSCLC = system: HOP-92 NSCLC
HS 578T breast = system: HS 578T breast
HT29 colon = system: HT29 colon
IGROV1 ovarian = system: IGROV1 ovarian
K-562 leukemia = system: K-562 leukemia
KM12 colon = system: KM12 colon
LOX IMVI melanoma = system: LOX IMVI melanoma
M14 melanoma = system: M14 melanoma
MALME-3M melanoma = system: MALME-3M melanoma
MCF7 breast = system: MCF7 breast
MDA-MB-231 breast = system: MDA-MB-231 breast
MDA-MB-435 = system: MDA-MB-435
MOLT-4 leukemia = system: MOLT-4 leukemia
NCI-H226 lung = system: NCI-H226 lung
NCI-H23 lung = system: NCI-H23 lung
NCI-H460 lung = system: NCI-H460 lung
NCI-H522 lung = system: NCI-H522 lung
NCI/ADR-RES ovarian = system: NCI/ADR-RES ovarian
OVCAR-3 ovarian = system: OVCAR-3 ovarian
OVCAR-4 ovarian = system: OVCAR-4 ovarian
OVCAR-5 ovarian = system: OVCAR-5 ovarian
OVCAR-8 ovarian = system: OVCAR-8 ovarian
PC-3 prostate = system: PC-3 prostate
RPMI-8226 leukemia = system: RPMI-8226 leukemia
RXF 393 renal = system: RXF 393 renal
SF-268 CNS = system: SF-268 CNS
SF-295 CNS = system: SF-295 CNS
SF-539 CNS = system: SF-539 CNS
SK-MEL-2 melanoma = system: SK-MEL-2 melanoma
SK-MEL-28 melanoma = system: SK-MEL-28 melanoma
SK-MEL-5 melanoma = system: SK-MEL-5 melanoma
SK-OV-3 ovarian = system: SK-OV-3 ovarian
SN12C renal = system: SN12C renal
SNB-19 CNS = system: SNB-19 CNS
SNB-75 CNS = system: SNB-75 CNS
SR leukemia = system: SR leukemia
SW-620 colon = system: SW-620 colon
T-47D breast = system: T-47D breast
TK-10 renal = system: TK-10 renal
U251 CNS = system: U251 CNS
UACC-257 melanoma = system: UACC-257 melanoma
UACC-62 melanoma = system: UACC-62 melanoma
UO-31 renal = system: UO-31 renal

Compound: COc1ccc(-c2cc(-c3cc(Cl)ccc3Cl)nc3n[nH]c(N)c23)cc1
- GI50 (786-0 renal): 19.3 µM
- TGI (786-0 renal): 54.1 µM
- GI50 (A498 renal): 21 µM
- TGI (A498 renal): 57.5 µM
- GI50 (A549 NSCLC): 28.8 µM
- TGI (A549 NSCLC): > 100 µM
- GI50 (ACHN renal): 37.8 µM
- TGI (ACHN renal): > 100 µM
- GI50 (BT-549 breast): 38.1 µM
- TGI (BT-549 breast): > 100 µM
- GI50 (CAKI-1 renal): 4.05 µM
- TGI (CAKI-1 renal): 24.4 µM
- GI50 (CCRF-CEM leukemia): 31 µM
- TGI (CCRF-CEM leukemia): 90.7 µM
- GI50 (COLO 205 colon): 34.6 µM
- TGI (COLO 205 colon): > 100 µM
- GI50 (DU-145 prostate): 36 µM
- TGI (DU-145 prostate): > 100 µM
- GI50 (EKVX NSCLC): 34.6 µM
- TGI (EKVX NSCLC): > 100 µM
- GI50 (HCC-2998 colon): 15.2 µM
- TGI (HCC-2998 colon): 34.6 µM
- GI50 (HCT-116 colon): 6.32 µM
- TGI (HCT-116 colon): 29.3 µM
- GI50 (HCT-15 colon): 11.6 µM
- TGI (HCT-15 colon): > 100 µM
- GI50 (HOP-62 NSCLC): 14.7 µM
- TGI (HOP-62 NSCLC): 84.6 µM
- GI50 (HOP-92 NSCLC): 22.3 µM
- TGI (HOP-92 NSCLC): > 100 µM
- GI50 (HS 578T breast): 25.3 µM
- TGI (HS 578T breast): 87 µM
- GI50 (HT29 colon): 6.32 µM
- TGI (HT29 colon): > 100 µM
- GI50 (IGROV1 ovarian): 28.3 µM
- TGI (IGROV1 ovarian): > 100 µM
- GI50 (K-562 leukemia): 15.8 µM
- TGI (K-562 leukemia): > 100 µM
- GI50 (KM12 colon): 8.26 µM
- TGI (KM12 colon): 83.6 µM
- GI50 (LOX IMVI melanoma): 20.1 µM
- TGI (LOX IMVI melanoma): > 100 µM
- GI50 (M14 melanoma): 29.5 µM
- TGI (M14 melanoma): > 100 µM
- GI50 (MALME-3M melanoma): 46.8 µM
- TGI (MALME-3M melanoma): > 100 µM
- GI50 (MCF7 breast): 3.45 µM
- TGI (MCF7 breast): > 100 µM
- GI50 (MDA-MB-231 breast): 34 µM
- TGI (MDA-MB-231 breast): > 100 µM
- GI50 (MDA-MB-435): 2.65 µM
- TGI (MDA-MB-435): 6.94 µM
- GI50 (MOLT-4 leukemia): 30.9 µM
- TGI (MOLT-4 leukemia): > 100 µM
- GI50 (NCI-H226 lung): 63.4 µM
- TGI (NCI-H226 lung): > 100 µM
- GI50 (NCI-H23 lung): 36.9 µM
- TGI (NCI-H23 lung): > 100 µM
- GI50 (NCI-H460 lung): 6.68 µM
- TGI (NCI-H460 lung): 39.3 µM
- GI50 (NCI-H522 lung): 17.3 µM
- TGI (NCI-H522 lung): 49.3 µM
- GI50 (NCI/ADR-RES ovarian): 18 µM
- TGI (NCI/ADR-RES ovarian): > 100 µM
- GI50 (OVCAR-3 ovarian): 8.82 µM
- TGI (OVCAR-3 ovarian): 61.9 µM
- GI50 (OVCAR-4 ovarian): 15.6 µM
- TGI (OVCAR-4 ovarian): > 100 µM
- GI50 (OVCAR-5 ovarian): 58.2 µM
- TGI (OVCAR-5 ovarian): > 100 µM
- GI50 (OVCAR-8 ovarian): 32 µM
- TGI (OVCAR-8 ovarian): > 100 µM
- GI50 (PC-3 prostate): 35.9 µM
- TGI (PC-3 prostate): > 100 µM
- GI50 (RPMI-8226 leukemia): 22.8 µM
- TGI (RPMI-8226 leukemia): 70.2 µM
- GI50 (RXF 393 renal): 29.5 µM
- TGI (RXF 393 renal): > 100 µM
- GI50 (SF-268 CNS): 4.32 µM
- TGI (SF-268 CNS): 24.5 µM
- GI50 (SF-295 CNS): 6.62 µM
- TGI (SF-295 CNS): > 100 µM
- GI50 (SF-539 CNS): 25.2 µM
- TGI (SF-539 CNS): 59 µM
- GI50 (SK-MEL-2 melanoma): 36.1 µM
- TGI (SK-MEL-2 melanoma): > 100 µM
- GI50 (SK-MEL-28 melanoma): 26 µM
- TGI (SK-MEL-28 melanoma): > 100 µM
- GI50 (SK-MEL-5 melanoma): 14.4 µM
- TGI (SK-MEL-5 melanoma): 34.5 µM
- GI50 (SK-OV-3 ovarian): 34.5 µM
- TGI (SK-OV-3 ovarian): > 100 µM
- GI50 (SN12C renal): 32.7 µM
- TGI (SN12C renal): > 100 µM
- GI50 (SNB-19 CNS): 31.8 µM
- TGI (SNB-19 CNS): > 100 µM
- GI50 (SNB-75 CNS): 20.9 µM
- TGI (SNB-75 CNS): > 100 µM
- GI50 (SR leukemia): 10.1 µM
- TGI (SR leukemia): 52.5 µM
- GI50 (SW-620 colon): 8.16 µM
- TGI (SW-620 colon): > 100 µM
- GI50 (T-47D breast): 30.8 µM
- TGI (T-47D breast): > 100 µM
- GI50 (TK-10 renal): 41.2 µM
- TGI (TK-10 renal): > 100 µM
- GI50 (U251 CNS): 8.95 µM
- TGI (U251 CNS): > 100 µM
- GI50 (UACC-257 melanoma): 70.4 µM
- TGI (UACC-257 melanoma): > 100 µM
- GI50 (UACC-62 melanoma): 41.9 µM
- TGI (UACC-62 melanoma): > 100 µM
- GI50 (UO-31 renal): 27.9 µM
- TGI (UO-31 renal): > 100 µM
